Data reported in patent US8288410B2, “3-substituted quinolinium and 7H-indolo[2,3-c]quinolinium salts as new antiinfectives” (Florida Agricultural and Mechanical University, priority 2008, dated 2012).

What was measured:
[1] = system: Candida albicans ATTC 90028; assay: Antifungal susceptibility testing, Candida albicans; assay type: cell-based
Protocol: (§1) Using standard susceptibility tests, the compounds of the invention were determined to be active against MRSA, C. neoformans and several other bacteria, fungi and protozoa. More specifically, the antibacterial and antifungal testing was carried out in the following manner. Cryptococcus neoformans ATCC 90113 and MRSA were obtained from the American Type Culture Collection (Manassas. Va.). Several others including Candida albicans ATTC 90028, Aspergillus fumigatus ATCC 90906 and Mycobacterium intracellulare (M. intracellulare) ATCC 23086 were also procured. Susceptibility testing was performed using a modified version of the National Committee for Clinical Laboratory Standards method. M. intracellulare was tested using a modified method of Franzblau, et al., J. Clin. Microbiol., 1998, 36, 362-366. DMSO solutions of samples were serially diluted in saline, and transferred in duplicate to 96 well microplates. Microbial suspensions were diluted in the broth to afford desired colony forming units/mL according to the 0.5 McFarland Standard [C. Albicans: either Saboraud Dextrose broth (SDB) or RPMI 1640, C. neoformans: SDB, A fumigatus: either YM broth (for MICS) or RPMI-1640+5% Alamar Blue.] After adding microbial cultures to the sampled afforded a final volume of 200 μL and final test concentration starting with 20 μg/mL, plates were read prior to and after final incubation using either fluorescence at 544ex/590em (M intracellulare, A. fumigatus) using the Polarstar galaxy reader (Biotek Instruments, Vermont). Growth (saline only), solvent and blank (media only) controls were included on each test plate. Drug controls [Ciprofloxacin (ICN Biomedicals, Ohio) for bacteria and Amphotericin B (ICN Biomedicals, Ohio) for fungi] were included in each assay. Percent growth was calculated and plotted versus test concentration to afford IC50 (sample concentration that affords 50% inhibition or growth of the organism). The minimum inhibitory concentration (MIC) was determined by visually inspecting the plate, and is defined as the lowest test concentration that allows no detectable growth (for Almar Blue assays, no color change from blue to pink).

[2] = system: Cryptococcus neoformans ATCC 90113; assay: Antifungal susceptibility testing, Cryptococcus neoformans; assay type: cell-based
Protocol: as §1

[3] = system: Aspergillus fumigatus ATCC 90906; assay: Antifungal susceptibility testing, Aspergillus fumigatus; assay type: cell-based; settings: Aspergillus fumigatus
Protocol: as §1

MRSA = assay: Antibacterial susceptibility testing, MRSA; assay type: cell-based, methicillin resistant Staphylococcus aureus; settings: for MRS IC50 / MRS MFC / MRS MIC: Table 1
Protocol: as §1

Structure (SMILES) | Ca IC50 ([1]; Table 1) | Ca MFC ([1]; Table 1) | Ca MIC ([1]; Table 1) | Cn IC50 ([2]; Table 1) | Cn MFC ([2]; Table 1) | Cn MIC ([2]; Table 1) | A fu IC50 ([3]; Table 1) | A fu MFC ([3]; Table 1) | A fu MIC ([3]; Table 1) | MRS IC50 (MRSA) | MRS MFC (MRSA) | MRS MIC (MRSA) | other results
[I-].[O-][S+](c1cccc(Br)c1)c1cc2ccccc2[n+](CCCCCc2ccccc2)c1 (centres unmarked) [XYZ-V-29] | — ((-) = >20 μg/mL) | — ((-) = >20 μg/mL) | — ((-) = >20 μg/mL) | 5.5 µg/mL | 20 µg/mL | 10 µg/mL | — ((-) = >20 μg/mL) | — ((-) = >20 μg/mL) | — ((-) = >20 μg/mL) | 0.90 µg/mL | — ((-) = >20 μg/mL) | 2.5 µg/mL | 
COc1cccc([S+]([O-])c2cc3ccccc3[n+](CCCCCc3ccccc3)c2)c1.[I-] (centres unmarked) [XYZ-V-23] | — ((-) = >20 μg/mL) | — ((-) = >20 μg/mL) | — ((-) = >20 μg/mL) |  | — ((-) = >20 μg/mL) | — ((-) = >20 μg/mL) | — ((-) = >20 μg/mL) | — ((-) = >20 μg/mL) | — ((-) = >20 μg/mL) | 2.50 µg/mL | — ((-) = >20 μg/mL) | 10 µg/mL | 
COc1ccc(Sc2cc3ccccc3[n+](CCCCCc3ccccc3)c2)cc1.[I-] [XYZ-III-72] | — ((-) = >20 μg/mL) | — ((-) = >20 μg/mL) | — ((-) = >20 μg/mL) | 9.5 µg/mL | — ((-) = >20 μg/mL) | 20 µg/mL | 3.5 µg/mL | — ((-) = >20 μg/mL) | 10 µg/mL | 2.0 µg/mL | 10 µg/mL | 5.0 µg/mL | 
[I-].[O-][S+](c1cc(C(F)(F)F)cc(C(F)(F)F)c1)c1cc2ccccc2[n+](CCCCCc2ccccc2)c1 (centres unmarked) [XYZ-V-13] | 10 µg/mL | 20 µg/mL | 20 µg/mL | 3.0 µg/mL | 20 µg/mL | 5.0 µg/mL | — ((-) = >20 μg/mL) | — ((-) = >20 μg/mL) | — ((-) = >20 μg/mL) | 0.20 µg/mL | 10 µg/mL | 0.63 µg/mL | 
COc1ccccc1Sc1cc2ccccc2[n+](CCCCCc2ccccc2)c1.[I-] [XYZ-IV-18] | 3.0 µg/mL | — ((-) = >20 μg/mL) | 10 µg/mL | 0.85 µg/mL | 5.0 µg/mL | 2.5 µg/mL | 0.09 µg/mL | 10 µg/mL | 1.3 µg/mL | 0.25 µg/mL | 5.0 µg/mL | 0.63 µg/mL | 
C[n+]1cc(Sc2ccccc2)cc2ccccc21.[I-] [XYZ-III-53] | — ((-) = >20 μg/mL) | — ((-) = >20 μg/mL) | — ((-) = >20 μg/mL) | — ((-) = >20 μg/mL) | — ((-) = >20 μg/mL) | — ((-) = >20 μg/mL) | — ((-) = >20 μg/mL) | — ((-) = >20 μg/mL) | — ((-) = >20 μg/mL) | — ((-) = >20 μg/mL) | — ((-) = >20 μg/mL) | — ((-) = >20 μg/mL) | 
[I-].[O-][S+](c1ccccc1)c1cc2ccccc2[n+](CCCCCc2ccccc2)c1 (centres unmarked) [XYZ-IV-79] | — ((-) = >20 μg/mL) | — ((-) = >20 μg/mL) | — ((-) = >20 μg/mL) |  | — ((-) = >20 μg/mL) | — ((-) = >20 μg/mL) | — ((-) = >20 μg/mL) | — ((-) = >20 μg/mL) | — ((-) = >20 μg/mL) | 1.5 µg/mL | — ((-) = >20 μg/mL) | 5.0 µg/mL | 
[I-].c1ccc(CCCCC[n+]2cc(Sc3ccccc3)cc3ccccc32)cc1 [XYZ-III-54] | 5.5 µg/mL | — ((-) = >20 μg/mL) | 10 µg/mL |  | 10 µg/mL | 5.0 µg/mL | 1.3 µg/mL | — ((-) = >20 μg/mL) |  | 1.0 µg/mL | 10 µg/mL | 2.5 µg/mL | 
[I-].[O-][S+](c1ccc(F)cc1)c1cc2ccccc2[n+](CCCCCc2ccccc2)c1 (centres unmarked) [XYZ-IV-84] | — ((-) = >20 μg/mL) | — ((-) = >20 μg/mL) | — ((-) = >20 μg/mL) |  | — ((-) = >20 μg/mL) | — ((-) = >20 μg/mL) | — ((-) = >20 μg/mL) | — ((-) = >20 μg/mL) | — ((-) = >20 μg/mL) | 0.80 µg/mL | 20 µg/mL | 5.0 µg/mL | 
Brc1ccc(Sc2cc3ccccc3[n+](CCCCCc3ccccc3)c2)cc1.[I-] [XYZ-III-89] | 15 µg/mL | — ((-) = >20 μg/mL) | — ((-) = >20 μg/mL) | 1.0 µg/mL | 10 µg/mL | 2.5 µg/mL | 1.5 µg/mL | — ((-) = >20 μg/mL) | 2.5 µg/mL | 1.5 µg/mL | 10 µg/mL | 2.5 µg/mL | 
C[n+]1cc(Nc2ccccc2Cl)cc2ccccc21.[I-] [JRE-2-42-1] |  |  |  |  |  |  |  |  |  |  |  |  | Ca IC50 ([1]; Table 2): — ((-) = >20 μg/mL); Ca MFC ([1]; Table 2): — ((-) = >20 μg/mL); Ca MIC ([1]; Table 2): — ((-) = >20 μg/mL); Cn IC50 ([2]; Table 2): — ((-) = >20 μg/mL); Cn MFC ([2]; Table 2): — ((-) = >20 μg/mL); Cn MIC ([2]; Table 2): — ((-) = >20 μg/mL); A fu IC50 ([3]; Table 2): — ((-) = >20 μg/mL); MRSA IC50 (MRSA; Table 2): — ((-) = >20 μg/mL); MRSA MFC (MRSA; Table 2): — ((-) = >20 μg/mL); MRSA MIC (MRSA; Table 2): — ((-) = >20 μg/mL)
[I-].[O-][S+](c1ccc(Br)cc1)c1cc2ccccc2[n+](CCCCCc2ccccc2)c1 (centres unmarked) [XYZ-V-20] | — ((-) = >20 μg/mL) | — ((-) = >20 μg/mL) | — ((-) = >20 μg/mL) | 7.0 µg/mL | — ((-) = >20 μg/mL) | 10 µg/mL | — ((-) = >20 μg/mL) | — ((-) = >20 μg/mL) | — ((-) = >20 μg/mL) | 0.50 µg/mL | — ((-) = >20 μg/mL) | 2.5 µg/mL | 
